According to US20240400553A1, “AMINE BASED MATRIPTASE 2 INHIBITORS AND USES THEREOF” (Disc Medicine, Inc., priority 2023, published 2024):

What follows are compounds tested against T1, Human Recombinant Matriptase 2 (Homo sapiens, UniProt Q8IU80) (assay: Matriptase 2 inhibition, fluorescence based assay (Method I)). Conditions: Table A; Ki of Matriptase-2; read-out: Mat-2 Ki.
T1 construct: made in house
T1 sequence (Q8IU80 1-811): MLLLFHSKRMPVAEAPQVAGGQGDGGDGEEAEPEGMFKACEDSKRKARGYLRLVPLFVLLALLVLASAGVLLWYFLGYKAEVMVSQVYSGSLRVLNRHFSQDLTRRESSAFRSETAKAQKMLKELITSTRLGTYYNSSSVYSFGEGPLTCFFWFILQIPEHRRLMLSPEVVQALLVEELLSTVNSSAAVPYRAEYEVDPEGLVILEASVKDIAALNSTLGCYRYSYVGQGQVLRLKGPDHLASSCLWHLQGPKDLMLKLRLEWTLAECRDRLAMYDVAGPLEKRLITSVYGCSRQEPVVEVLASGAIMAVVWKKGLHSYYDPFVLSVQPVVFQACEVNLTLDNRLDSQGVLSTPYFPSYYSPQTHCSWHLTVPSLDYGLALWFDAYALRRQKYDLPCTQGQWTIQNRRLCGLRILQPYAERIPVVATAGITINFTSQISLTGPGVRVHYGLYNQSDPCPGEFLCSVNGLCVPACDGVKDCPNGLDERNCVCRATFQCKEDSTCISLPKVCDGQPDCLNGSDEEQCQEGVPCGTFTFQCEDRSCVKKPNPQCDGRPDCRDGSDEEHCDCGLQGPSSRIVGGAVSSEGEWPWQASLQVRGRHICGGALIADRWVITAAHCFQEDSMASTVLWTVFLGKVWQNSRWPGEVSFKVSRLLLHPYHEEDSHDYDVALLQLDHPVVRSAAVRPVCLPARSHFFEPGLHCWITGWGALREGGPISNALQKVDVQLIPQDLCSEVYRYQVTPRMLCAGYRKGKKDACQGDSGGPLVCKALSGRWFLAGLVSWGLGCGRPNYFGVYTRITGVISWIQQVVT
Assay type: biochemical
Experimental: • Method I: Test compounds were evaluated for their potential to inhibit Human Recombinant Matriptase 2 (in-house) using fluorescence based assay. The concentration of Recombinant Matriptase 2 and the substrate used in the assay was: 3.5 nM (In-house Matriptase 2) and 62 μM (Boc-Gln-Ala-Arg-7-amido-4-methyl coumarin hydrobromide −Cat log: I-1550 from Bachem) respectively. The assay buffer used was 50 mM TRIS pH 7.5, 150 mM NaCl, 0.01% Gelatin TCL059 Himedia). The assay was performed using 384 well black flat bottom plate from grenier (Cat log: 781076) at 25° C. The enzyme and compound were preincubated for 30 mins, the plate was read at 60 mins after substrate addition at wavelength Ex: 360/Em: 480 nm. The final assay volume was 20 μl. A stock solution of compounds was initially prepared in DMSO and appropriate dilutions were made and IC50 was determined for all the compounds (final DMSO conc in the assay was 1%). All the measurements were carried out using the Spectramax M5, Molecular devices.
To determine Ki values, dose response curves were generated by plotting percentage inhibition as a function of inhibitor concentration and the data was fitted to sigmoidal non-linear regression equation (variable slope) using Graph Pad prism software V8.

| SMILES | Ki [nM] |
| --- | --- |
| CC(CCN(C)C)S(=O)(=O)Nc1cc(Cn2c(C(=O)O)cc3ccc(CN)nc32)c2ccccc2c1 (racemic) [Compound 8, 6-(aminomethyl)-1-((3-((3-(dimethylamino)-1-methylpropyl)sulfonamido)naphthalen-1-yl)methyl)-1H-pyrrolo[2,3-b]pyridine-2-carboxylic acid] | 100 to 500 |
| C[C@@H](c1ccccc1)S(=O)(=O)Nc1cc(Cn2c(C(=O)OCC3CCN(C)CC3)cc3ccc(CN)nc32)c2ccccc2c1 (racemic) [Compound 11, (1-methylpiperidin-4-yl)methyl 6-(aminometh-yl)-1-{[3-(1-phenyl-ethanesulfonamido)naph-thalen-1-yl]methyl}-1H-pyrrolo[2,3-b]pyridine-2-carboxylate] | ≤ 100 |
| CN1CCC(COC(=O)c2cc3ccc(CN)nc3n2Cc2cc(NS(=O)(=O)[C@H](F)c3ccccc3)cc3ccccc23)CC1 (racemic) [Compound 23, (1-methylpiperidin-4-yl)methyl 6-(amino-methyl)-1-({3-[fluoro-(phenyl)methanesulfon-amido]naphthalen-1-yl}-methyl)-1H-pyrrolo[2,3-b]pyridine-2-carboxylate] | ≤ 100 |
| C[C@@H](c1ccccc1)S(=O)(=O)Nc1cc(Cn2c(C(=O)O)cc3ccc(CN)nc32)c2ccccc2c1 (racemic) [Compound 73, 6-(aminomethyl)-1-{[3-(1-phenylethanesulfon-amido)naphthalen-1-yl]-methyl}-1H-pyrrolo[2,3-b]pyridine-2-carboxylic acid] | ≤ 100 |
| CC(=O)O[C@H](C)OC(=O)c1cc2ccc(CN)nc2n1Cc1cc(NS(=O)(=O)Cc2ccccc2)cc2ccccc12 (racemic) [Compound 89, 1-[6-(aminomethyl)-1-{[3-(phenylmethanesul-fonamido)naphthalen-1-yl]methyl}-1H-pyrrolo-[2,3-b]pyridine-2-carbon-yloxy]ethyl acetate] | 100 to 500 |
| NCc1ccc2cc(C(=O)O)n(Cc3cc(NS(=O)(=O)[C@H](F)c4ccccc4)cc4ccccc34)c2n1 (racemic) [Compound 98, 6-(aminomethyl)-1-({3-[fluoro(phenyl)methane-sulfonamido]naphthalen-1-yl}methyl)-1H-pyr-rolo[2,3-b]pyridine-2-carboxylic acid] | 100 to 500 |
| CC(C)C(=O)O[C@H](C)OC(=O)c1cc2ccc(CN)nc2n1Cc1cc(NS(=O)(=O)Cc2ccccc2)cc2ccccc12 (racemic) [Compound 118, 1-[6-(aminomethyl)-1-{[3-(phenylmethanesul-fonamido)naphthalen-1-yl]methyl}-1H-pyrrolo-[2,3-b]pyridine-2-car-bonyloxylethyl 2-meth-ylpropanoate] | 500 to 3000 |
| CCOC(=O)c1cc2ccc(CN)nc2n1Cc1cc(NS(=O)(=O)[C@@H](C)c2ccccc2)cc2ccccc12 (racemic) [Compound 119, ethyl 6-(aminomethyl)-1-{[3-(1-phenylethanesul-fonamido)naphthalen-1-yl]methyl}-1H-pyrrolo-[2,3-b]pyridine-2-car-boxylate] | 500 to 3000 |
| C[C@H](OC(=O)c1ccccc1)OC(=O)c1cc2ccc(CN)nc2n1Cc1cc(NS(=O)(=O)Cc2ccccc2)cc2ccccc12 (racemic) [Compound 124, 1-[6-(aminomethyl)-1-{[3-(phenylmethanesul-fonamido)naphthalen-1-yl]methyl}-1H-pyrrolo-[2,3-b]pyridine-2-car-bonyloxy]ethyl benzoate] | 500 to 3000 |

Further lines, results first:

| Ki [nM] | SMILES |
| --- | --- |
| ≤ 100 | CN1CCC[C@H](COC(=O)c2cc3ccc(CN)nc3n2Cc2cc(NS(=O)(=O)Cc3ccccc3)cc3ccccc23)C1 (racemic) [Compound 24, (1-methylpiperidin-3-yl)methyl 6-(amino-methyl)-1-{[3-(phenyl-methanesulfonamido)-naphthalen-1-yl]methyl}-1H-pyrrolo[2,3-b]pyr-idine-2-carboxylate] |
| ≤ 100 | CN1CC[C@H](COC(=O)c2cc3ccc(CN)nc3n2Cc2cc(NS(=O)(=O)Cc3ccccc3)cc3ccccc23)CC1=O (racemic) [Compound 30, rac-[(4R)-1-methyl-2-oxopiperidin-4-yl]meth-yl 6-(aminomethyl)-1-{[3-(phenylmethane-sulfonamido)naphthalen-1-yl]methyl}-1H-pyr-rolo[2,3-b]pyridine-2-carboxylate] |
| ≤ 100 | NCc1ccc2cc(C(=O)OCC[C@H]3CCCCN3)n(Cc3cc(NS(=O)(=O)Cc4ccccc4)cc4ccccc34)c2n1 (racemic) [Compound 32, 2-(piperidin-2-yl)ethyl 6-(aminomethyl)-1-{[3-(phenylmethanesulfon-amido)naphthalen-1-yl]-methyl}-1H-pyrrolo[2,3-b]pyridine-2-carboxylate] |
| ≤ 100 | CN1CC[C@H](CNC(=O)c2cc3ccc(CN)nc3n2Cc2cc(NS(=O)(=O)Cc3ccccc3)cc3ccccc23)CC1=O (racemic) [Compound 37, rac-6-(aminomethyl)-N-{[(4R)-1-methyl-2-oxo-piperidin-4-yl]methyl}-1-{[3-(phenylmethane-sulfonamido)naphthalen-1-yl]methyl}-1H-pyr-rolo[2,3-b]pyridine-2-carboxamide] |
| ≤ 100 | CN1CCN[C@@H](COC(=O)c2cc3ccc(CN)nc3n2Cc2cc(NS(=O)(=O)Cc3ccccc3)cc3ccccc23)C1 (racemic) [Compound 41, (4-methylpiperazin-2-yl)methyl 6-(aminometh-yl)-1-{[3-(phenylmeth-ane-sulfonamido)naph-thalen-1-yl]methyl}-1H-pyrrolo[2,3-b]pyridine-2-carboxylate] |
| ≤ 100 | C[C@H](OC(=O)c1cc2ccc(CN)nc2n1Cc1cc(NS(=O)(=O)Cc2ccccc2)cc2ccccc12)C1CCN(C)CC1 (racemic) [Compound 48, 1-(1-methylpiperidin-4-ylethyl 6-(aminomethyl)-1-{[3-(phenylmethane-sulfonamido)naphthalen-1-yl]methyl}-1H-pyr-rolo[2,3-b]pyridine-2-carboxylate] |
| ≤ 100 | CN1CCN(C)[C@@H](COC(=O)c2cc3ccc(CN)nc3n2Cc2cc(NS(=O)(=O)Cc3ccccc3)cc3ccccc23)C1 (racemic) [Compound 51, (1,4-dimethylpiperazin-2-yl)methyl 6-(amino-methyl)-1-{[3-(phenyl-methanesulfonamido)-naphthalen-1-yl]methyl}-1H-pyrrolo[2,3-b]pyr-idine-2-carboxylate] |
| ≤ 100 | CC[C@@H](COC(=O)c1cc2ccc(CN)nc2n1Cc1cc(NS(=O)(=O)Cc2ccccc2)cc2ccccc12)N(C)C (racemic) [Compound 54, rac-(2R)-2-(dimethyl-amino)butyl 6-(amino-methyl)-1-{[3-(phenyl-methanesulfonamido)-naphthalen-1-yl]methyl}-1H-pyrrolo[2,3-b]pyr-idine-2-carboxylate] |
| ≤ 100 | CN1CCCC[C@@H]1COC(=O)c1cc2ccc(CN)nc2n1Cc1cc(NS(=O)(=O)Cc2ccccc2)cc2ccccc12 (racemic) [Compound 63, (1-methylpiperidin-2-yl)methyl 6-(aminometh-yl)-1-{[3-(phenylmeth-anesulfonamido)naph-thalen-1-yl]lmethyl}-1H-pyrrolo[2,3-b]pyridine-2-carboxylate] |
| ≤ 100 | CN1CCO[C@@H](COC(=O)c2cc3ccc(CN)nc3n2Cc2cc(NS(=O)(=O)Cc3ccccc3)cc3ccccc23)C1 (racemic) [Compound 64, (4-methylmorpholin-2-yl)methyl 6-(aminometh-yl)-1-{[3-(phenylmeth-anesulfonamido)naph-thalen-1-yl]methyl}-1H-pyrrolo[2,3-b]pyridine-2-carboxylate] |
| 100 to 500 | CN1CCC[C@H](OC(=O)c2cc3ccc(CN)nc3n2Cc2cc(NS(=O)(=O)Cc3ccccc3)cc3ccccc23)C1 (racemic) [Compound 99, 1-methylpiperidin-3-yl 6-(aminomethyl)-1-{[3-(phenylmethanesulfon-amido)naphthalen-1-yl]-methyl}-1H-pyrrolo[2,3-b]pyridine-2-carboxylate] |
| 100 to 500 | NCc1ccc2cc(C(=O)OC[C@H]3CCCN3)n(Cc3cc(NS(=O)(=O)Cc4ccccc4)cc4ccccc34)c2n1 (racemic) [Compound 108, rac-[(2R)-pyrrolidin-2-yl]methyl 6-(aminometh-yl)-1-{[3-(phenylmeth-anesulfonamido)naph-thalen-1-yl]methyl}-1H-pyrrolo[2,3-b]pyridine-2-carboxylate] |
